The record followed here is ChEMBL document CHEMBL1201862, “PubChem BioAssay data set” (2004).

The source made the active and inactive calls.

A short description of assay [1]: DRD fibroblast viability loss – cell-based, non-viral oncogenic, luminescence, dose response (AID 1934). Particulars: Homo sapiens. Format: functional.
Assay [2] deals with BJ. The assay is described as follows: cells. The assay is classed as functional, cell-based. Particulars: Homo sapiens.
Assay [3] in a line: Luminescence Cell-Based Dose Response HTS to Identify Inhibitors of 5'UTR Stem-Loop Driven Prion Protein mRNA Translation in H4 Neuroglioblastoma Cells. [Related pubchem assays: 1827 (Project Summary), 1813 (Primary HTS)]. The assay is classed as functional.
In a further assay the test system is INS1. The assay can be described thus: INS-1E survival protection against cytokine death – cell-based, luminescence, retest, dose response (AID 449756).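 Also: cell death triggered by IL-1 beta plus TNF-alpha plus IFN-gamma mixture; protective hits raise ATP signal compared with cytokine alone wells.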 The assay is classed as functional. Particulars: Rattus norvegicus.
The target of assay [4] is G-protein coupled receptor 55 (Homo sapiens, UniProt Q9Y2T6). The assay can be described thus: inhibition of LPI-stimulated GPR55 beta-arrestin translocation – imaging, U2OS, beta-arrestin-GFP, LPI agonist, primary screen (AID 2013).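 Also: antagonist potency measured as reduced agonist-driven arrestin aggregation.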 Format: functional.
Assay [5] can be described thus: alpha-synuclein stem-loop luciferase translation blockers – H4 neuroglioma cells, luminescence, confirmation (AID 1988). The assay is classed as functional, cell-based.
For assay [6], the system named is HEK293. The assay can be described thus: membrane integrity loss in HEK cells – cell-based, fluorescence, cytotoxicity control for IDE activator project, dose response (AID 588440).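 Also: cytotoxicity by LDH release measuring loss of membrane integrity.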 Format: functional. The settings on record: Homo sapiens.
Assay [7] is described as follows: luciferase reporter signal suppression in cells – H4 neuroglioma cells, luminescence, dose response (AID 1990). The assay is classed as functional, cell-based. For orientation: A reporter such as luciferase makes a cellular process visible.
The target of assay [8] is T1, Insulin-degrading enzyme (Homo sapiens, UniProt P14735). The assay can be described thus: cellular IDE activation of Abeta substrate cleavage – fluorescence polarization, HEK cells, dose response (AID 588439). Format: functional, cell-based. On the technique in general: Polarisation of emitted light reports the rotation of a fluorescent probe.
For assay [9], the system named is BJ. The assay can be described thus: BJ-TERT-LT-ST fibroblast viability loss – cell-based, RAS-independent, luminescence, dose response (AID 1935).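 Also: BJ fibroblasts immortalized with TERT plus LT and ST oncogenes.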 The settings on record: Homo sapiens. Format: functional.
In assay [10] the test system is BJ. The assay is described as follows: growth inhibition of engineered Ras-driven BJ cells – cell-based, alamar blue fluorescence, cherrypicked samples, dose response (AID 2631).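 Also: confirmatory dose-response assay in RAS-dependent BJ fibroblasts engineered with TERT, LT and ST, with cytotoxicity read by fluorescence.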 Format: functional. The settings on record: Homo sapiens. Background: Alamar Blue is a resazurin reagent that responds to reducing activity.
Assay [11] deals with T1, Insulin-degrading enzyme. The assay can be described thus: recombinant IDE activation, cell-free – biochemical, fluorescence polarization, counter-screen for IDE activator project, dose response (AID 588681).
Assay [12] concerns HEK293. The assay can be described thus: optical interference in Abeta FP readout, dose response, artefact control for IDE activator project, biochemical, fluorescence polarization (AID 588442). Format: functional, cell-based. The settings on record: Homo sapiens.
For assay [13], the system named is BJ. The assay can be described thus: BJ-TERT fibroblast viability loss – cell-based, RAS-independent, luminescence, dose response (AID 1933). The assay is classed as functional. The settings on record: Homo sapiens.
The target of assay [14] is T2, Ubiquitin-conjugating enzyme E2 N (Homo sapiens, UniProt P61088).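 Also: Dose-response confirmation in a TR-FRET assay detecting UBC13-driven polyubiquitin chain formation, inhibition measured.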
T2 sequence (P61088 whole entry): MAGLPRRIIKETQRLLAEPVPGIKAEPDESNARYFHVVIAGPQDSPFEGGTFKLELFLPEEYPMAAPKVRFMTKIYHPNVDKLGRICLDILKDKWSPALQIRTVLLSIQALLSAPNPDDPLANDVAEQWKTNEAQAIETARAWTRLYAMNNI
The assay is classed as functional.

Assay [15] is described as follows: blockers of HIV-1 envelope-mediated cell-cell fusion – cherry-pick, dose response (AID 652057). Format: functional, cell-based.
The nature of assay [16]: A549 cell cytotoxicity, dose response, cytotoxicity control, plate reader, cherry-pick, antagonist series (AID 743412). The assay is classed as functional, cell-based.
Assay [17] in a line: blockers of bursicon-stimulated LGR2 cAMP reporter – cell-based, HEK293, CRE-luciferase reporter, cherry pick, set 2, dose response (AID 743343).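 Also: transfected cells were stimulated with diluted bursicon conditioned medium after compound addition.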 Format: functional.
Assay [18] concerns the target T3, Microphthalmia-associated transcription factor (Homo sapiens, UniProt O75030).
T3 sequence (O75030 whole entry): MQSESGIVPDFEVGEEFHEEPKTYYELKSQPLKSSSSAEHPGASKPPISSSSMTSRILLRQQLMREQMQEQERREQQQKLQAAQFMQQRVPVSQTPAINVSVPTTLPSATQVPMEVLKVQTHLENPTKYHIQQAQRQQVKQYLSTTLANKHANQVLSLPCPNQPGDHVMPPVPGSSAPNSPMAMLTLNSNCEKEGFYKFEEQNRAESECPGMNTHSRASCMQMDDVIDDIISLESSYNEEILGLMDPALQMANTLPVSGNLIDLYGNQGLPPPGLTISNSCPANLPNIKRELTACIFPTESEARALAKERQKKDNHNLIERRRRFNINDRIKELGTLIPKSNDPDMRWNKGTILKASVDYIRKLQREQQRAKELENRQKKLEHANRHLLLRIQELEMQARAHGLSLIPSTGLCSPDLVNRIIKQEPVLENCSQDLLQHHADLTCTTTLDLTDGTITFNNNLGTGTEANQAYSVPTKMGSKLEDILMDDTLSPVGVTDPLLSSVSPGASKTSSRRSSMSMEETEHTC
The assay is described as follows: reducers of TRPM1 reporter luminescence, concentration series – cell-based, SK-MEL-5, cherry-picked, set 3, MITF inhibitor project, dose response (AID 493073).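 Also: SK-MEL-5 melanoma cells with luciferase driven by the MITF target TRPM1 promoter.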 The assay is classed as functional.

A short description of assay [19]: HIV-1 AD8 envelope cell-cell fusion blockers – cherry-pick, dose response (AID 652062).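 Also: luciferase signal from cell-cell fusion driven by HIV-1 clade B AD8 Env; potency is for inhibitors of fusion seen as a drop in luminescence.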 The assay is classed as functional, cell-based.
Assay [20] in a line: HEK-293T viability loss, compound-treated – cell-based, uHTS hits, cytotoxicity control for B/T-cell NF-kB inhibitor project, dose response (AID 489019).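 Also: IC50 reflects cytotoxicity as loss of cell viability.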 Format: functional.
Assay [21] relates to H4. The assay is described as follows: Inhibitors of Prion Protein 5' UTR mRNA Measured in Cell-Based System Using Plate Reader - 2078-01_Inhibitor_Dose_DryPowder_Activity. [Related pubchem assays (depositor defined):AID488894]. Format: functional. The settings on record: Homo sapiens.
Another assay deals with Jurkat. The assay is described as follows: blockers of NF-kB activation in T cells – Jurkat, luciferase reporter, luminescence, B- and T-cell, dose response (AID 489004).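 Also: NF-kB luciferase reporter Jurkat cells stimulated with PMA plus ionomycin.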 The assay is classed as functional, cell-based. The settings on record: Homo sapiens.
A short description of assay [22]: blockade of melanocortin 4 receptor signaling – cell-based, plate reader, cherry pick, counter-screen for LGR2 antagonist project, dose response (AID 743444).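 Also: transfected HEK 293 cells stimulated with alpha-MSH peptide; potency of inhibitors of the alpha-MSH evoked signal.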 Format: functional.
A short description of assay [23]: off-target signal loss in HeLa-CEM21 co-culture – HeLa F-luc CTL cells, cherry-picked, counter-screen for HIV-1 Env fusion inhibitor project, dose response (AID 652040).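 Also: potency for signal decrease marking cytotoxic or nonspecific inhibition.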 Format: functional, cell-based.
Assay [24] can be described thus: blockers of HIV-1 ZM109 envelope-driven cell-cell fusion – HeLa effector, CEM target cells, luciferase, cherry-pick, dose response (AID 652058).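 Also: luciferase signal from HIV-1 Env mediated cell-cell fusion of effector and target cells.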 The assay is classed as functional, cell-based.
The subject of assay [25] is H4. The assay is described as follows: inhibitors of control reporter signal in H4 cells – cell-based, plate reader, dry powder samples, counter-screen for prion reporter project, dose response (AID 540255). The settings on record: Homo sapiens. The assay is classed as functional.

T1 sequence (P14735 whole entry): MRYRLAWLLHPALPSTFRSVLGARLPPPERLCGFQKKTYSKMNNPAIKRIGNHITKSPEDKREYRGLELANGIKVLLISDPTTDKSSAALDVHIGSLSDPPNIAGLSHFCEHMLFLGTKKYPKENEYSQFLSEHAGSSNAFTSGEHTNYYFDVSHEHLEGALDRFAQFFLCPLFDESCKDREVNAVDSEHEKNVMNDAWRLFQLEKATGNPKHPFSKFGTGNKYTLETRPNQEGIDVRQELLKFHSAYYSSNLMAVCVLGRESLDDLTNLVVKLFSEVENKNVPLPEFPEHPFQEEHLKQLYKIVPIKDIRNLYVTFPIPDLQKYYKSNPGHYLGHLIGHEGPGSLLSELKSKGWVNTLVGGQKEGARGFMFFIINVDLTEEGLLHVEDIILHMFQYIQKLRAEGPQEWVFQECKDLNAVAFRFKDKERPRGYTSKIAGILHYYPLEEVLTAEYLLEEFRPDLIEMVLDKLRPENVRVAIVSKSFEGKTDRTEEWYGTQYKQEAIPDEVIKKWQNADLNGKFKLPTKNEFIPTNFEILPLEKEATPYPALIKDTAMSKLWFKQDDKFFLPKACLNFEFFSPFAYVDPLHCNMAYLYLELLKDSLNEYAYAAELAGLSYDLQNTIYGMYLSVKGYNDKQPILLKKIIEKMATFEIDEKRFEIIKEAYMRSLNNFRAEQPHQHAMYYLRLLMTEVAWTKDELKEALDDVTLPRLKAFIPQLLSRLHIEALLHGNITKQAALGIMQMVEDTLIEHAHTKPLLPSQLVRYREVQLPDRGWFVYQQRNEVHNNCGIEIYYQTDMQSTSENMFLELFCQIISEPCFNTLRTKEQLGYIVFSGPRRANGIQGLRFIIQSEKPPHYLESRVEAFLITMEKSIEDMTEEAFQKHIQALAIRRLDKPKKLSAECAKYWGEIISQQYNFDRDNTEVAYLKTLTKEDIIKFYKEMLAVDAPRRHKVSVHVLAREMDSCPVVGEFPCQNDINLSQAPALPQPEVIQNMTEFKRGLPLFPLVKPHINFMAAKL
Sequence of G-protein coupled receptor 55 (Q9Y2T6 whole entry): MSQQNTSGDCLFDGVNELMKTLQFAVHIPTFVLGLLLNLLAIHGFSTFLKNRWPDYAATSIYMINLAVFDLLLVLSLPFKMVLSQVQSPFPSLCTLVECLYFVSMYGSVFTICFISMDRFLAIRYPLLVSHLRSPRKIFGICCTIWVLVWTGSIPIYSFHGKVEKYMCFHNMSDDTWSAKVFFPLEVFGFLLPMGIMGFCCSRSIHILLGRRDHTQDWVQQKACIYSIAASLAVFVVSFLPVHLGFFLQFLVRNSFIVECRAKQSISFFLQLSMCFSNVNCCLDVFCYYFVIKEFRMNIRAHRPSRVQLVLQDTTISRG

As to `COC(=O)C1=C(C)N(Cc2ccccc2)C(NCc2cccc(C(F)(F)F)c2)=N[C@H]1c1cccc(F)c1`, the EC50 is 9.59 µM (inconclusive) in assay [1]; > 150 µM (inconclusive) in the assay with BJ [2]; 11 µM (active) in assay [3]; > 120 µM (not active) in assay [5]; 8.28 µM (active) in [7]; 9.71 µM (active) on Insulin-degrading enzyme [8]. The EC50 in the assay on BJ [9] was 4.9 µM (active); with BJ [10] it was > 133 µM (inconclusive); at Insulin-degrading enzyme [11] it was > 54.7 µM (inactive); in the assay with HEK293 [12], > 54.7 µM (inactive); with BJ [13], 5.26 µM (inconclusive). Moreover, the AC50 with INS1 was 6.83 µM (active). Moreover, the results for the IC50 (in assay [4]; in the assay with HEK293 [6]; in assay [14]) were 1.85 µM (active), 11.3 µM (inactive) and > 20 µM (inactive), respectively.
With `COc1cccc(NC(=O)Nc2cccc(C(=O)O)c2)c1`, the AC50 in [15] was 1.8 µM (active); in [16], > 52 µM (inactive); in assay [17], 1.56 µM (active); in assay [18], 2.37 µM (active); in assay [19] it was 3.29 µM (active); in the assay with H4 [21], 0.915 µM (active). Further, the AC50 was 2.35 µM (active) in assay [22], 2.11 µM (active) in assay [23], 7.32 µM (active) in [24] and 3.95 µM (active) with H4 [25]. The IC50 in assay [20] is > 80 µM (inactive); in the assay with Jurkat it was 1.9 µM (active).

What is called EC50 is the concentration that produces a half-maximal response. For orientation: AC50 means the midpoint of the concentration-response curve, whichever way the signal moves. As a reminder, the IC50 is the concentration needed to halve the response being measured.
